Measurements: patent US8206983B2, “In vitro methods for the induction and maintenance of plant cell lines as single suspension cells with intact cell walls” (Dow AgroSciences, LLC., priority 2006, dated 2012)
Where two headings read alike, the source gives them in different places.

Columns and labels:
[1] = tested on: BY2, NT1, Petite Havana (PH) and Xanthi (Xan) and Jimson Weed (JM) Suspension Cells; test: Effects of tubulin inhibitors on growth and cell separation, all suspension types tested; assay type: cell-based
Description: BY2 suspension-cultured cells were obtained from Japan tobacco and maintained in LSBY2 medium in a 7 day cycle. Jimsonweed suspension and Pettite Havana tobacco suspensions were initiated from callus initiated at DAS and Xanthi suspensions were procured as a sample from Professor Jack Widholm from UIUC, IL. JT-NT1 suspension cells, obtained from Washington University that are maintained in NT1B medium in 7 day cycle were used only for the pectin degradation enzyme study to separate the cells into single cells. The cells were cultured in shake flasks at 25-28° C. in dark on orbital shakers at 150 rpm. […] Stock concentrations of both the tubulin polymerization inhibitors used in this investigation were dissolved in DMSO to prepare a 0.5 M stock solution. The concentration tested for the pectinase and pectolyase enzymes were in the range of 0.0005% to 0.005%. […] NT-1 cells were originally developed from Nicotiana tabacum L. cv. bright yellow 2.
Cell expansion and separation were observed by light microscopy (with Nomarski and dark field optics). Spherical cells and single cells were counted by using a hemacytometer to determine the degree of cell expansion and separation, respectively. […] In order to determine the presence of the cell wall in this single cell cultures optical brightener was used. Calcafluor obtained from Sigma, which is a specific fluorescent dye for cellulose is used in this study, and the cellulose-Calcafluor complexing was observed by fluorescence microscopy (Zeiss Photomicroscope). […] Prior to use, the Calcafluor stain was centrifuged at 15,000 g for 2 min. to remove precipitates. A drop or two of the Calcafluor solution was added to the separated cells.

[2] = tested on: NT1 tobacco cell growth; test: Effects of MTI on NT1 tobacco cell growth and single cell production in glycerol medium; assay type: cell-based
Procedure: The effects of Microtubule inhibitors (MTI) on tobacco cell growth in suspension culture were examined. […] Both the control and MTI-containing flasks contained a final concentration of 0.5-0.1% (v/v) DMSO. The growth of these chemicals was evaluated in EP12 medium for BY2 cells and NT1B medium for BTI-NT1 cells were the carbon source is substituted with 3% glycerol. The response of these cells was compared with the same medium composition but with 3% sucrose as the Carbon source.

[3] = tested on: Carrot suspension cultures; test: Single cell production from carrot suspension cultures; set-up: colony growth after plating single cells on M-medium: dose or concentration left out as unconfirmed
Procedure: Carrot callus cultures have been initiated from the in vitro maintained Daucus carota L. ssp. sativus cv Sativa plants. Isolated leaf petiole explants were cultured on semi solid medium (Mashayekhi-Nezamabadi, 2000). Suspension cultures were initiated from the callus by transferring 50 mg of friable callus in 1.5 ml of LSBY2 medium (Appendix I) in 24 micro well plate. The fastest growing suspensions were then transferred to flasks with 1 ml suspension in 35 ml LSBY2 liquid medium. The cultures were maintained in diffused light in a 7 day sub culture cycle.
A 1.5-ml diluted single cell cultures were plated on M-medium (Appendix II) in 15×100 Petri-plates and spread out using the loop. Untreated carrot suspension aggregates were also diluted to the same density and plated similarly to compare the growth responses between these cultures.
LSBY2 medium consists of Murashige and Skoog macro and micro-salts (Murashige and Skoog 1962) supplemented with 30 g sucrose (w/v), 100 mg/l myoinositol, 200 mg/l KH2PO4, 1 mg/l thiamine and […] 2,4-dichlorophenoxyacetic acid. The medium is adjusted pH 5.8 before autoclaving at 120° C. Suspension volume at the 7th day of culture, at stationary phase was used to initiate cultures. A 1-ml volume of carrot suspension inoculums is transferred into 50 ml LSBY2 medium and then the cultures were placed on shakers at 150 rpm in the dark at 28° C. The MTI compounds used were added along with the fresh medium at the culture initiation cycle.
A regenerable carrot cryopreserved line (D2-40-018) was thawed and cultured in Linsmeier-Skoog (LS) medium (Nagata, T., Nemoto, Y., and Hasezawa, S. (1992) Int. Rev. Cyto 132, 1-30). Medium salts were purchased from PhytoTechnology Laboratories, Catalog #L689. An actively growing suspension line was established within a week, and the maintenance line was sub-cultured by transferring 2 ml PCV to 58 ml of LS BY2 suspension medium at 28° C. on an orbital shaker (Innova-3300) at 125 rpm under diffused light on a 7 day culture cycle.

[4] = tested on: JTNT1 tobacco cell suspension cultures; test: Single cell production, growth and viability of JTNT1 suspension with microtubule inhibitors in 24-well plates, glycerol medium
Description: JTNT1 Tobacco Suspension Cultures. […] Furthermore, Suc stabilizes preformed microtubules, making an examination of the effects of MTIs on preformed microtubules unfeasible. In addition, sucrose increases solution viscosity substantially, and tubulin polymerization is altered at least in part by slowed dimer and polymer diffusion rates. Thus, it was important to have low or no sucrose in medium where the single cell production. Thus, a new JTNT1 line habituated in Glycerol was developed for this study.
Each of the 24 well contained 1 ml of JTNT1 suspension. The 24-well plates were kept on an Innova 4900 Multi Environmental Shaker with special clamps and harnesses to allow stacking of plates up to 6 plates high. The plates were rotated at a speed of 130 rpm and 25° C. in dark.
Single Cell Production. Each compound was dissolved in dimethyl sulfoxide (DMSO) to provide 0.5 Molar stock solutions. One ml of JTNT1 suspension (1 ml PCV/20 ml tobacco media) was added to each well of the 24 well plates. To each well an individual chemical was added to achieve the desired concentrations (at 1 μM, 3 μM, and 10 μM). The cultures were allowed to grow for 7 days on the Innova Shaker. Each day turbidity measurements was taken on each well using a SpectraMax M2^e by Molecular devices (set at 600 absorbance, with 5 readings taken per well). On day 7, cells were observed using the Leica 5000 inverted confocal microscope for formation of single cells and cell viability.

[5] = tested on: BY2 cells; test: Single cell production by MTI in BY2 cells in glycerol medium; assay type: cell-based, tobacco; conditions: glycerol as total carbon source
Procedure: The effects of Microtubule inhibitors (MTI) on tobacco cell growth in suspension culture were examined. Day seven stationary phase cells (1 ml) were transferred to medium (50 ml) in 250 ml shake flasks (Bokros et al., 1993) containing different concentrations (25 to 1000 nM) of MTI and were grown in cultures for 7 days in dark at 25° C. Both the control and MTI-containing flasks contained a final concentration of 0.5-0.1% (v/v) DMSO. The growth of these chemicals was evaluated in EP12 medium for BY2 cells and NT1B medium for BTI-NT1 cells were the carbon source is substituted with 3% glycerol. The response of these cells was compared with the same medium composition but with 3% sucrose as the Carbon source.

COc1cc2c(c(OC)c1OC)-c1ccc(OC)c(=O)cc1[C@@H](NC(C)=O)CC2 [Colchicine]
cell expansion and separation ([1]; 0.5 mM colchicine, all the other cell suspensions tested): partially occurred | concentration effective for the production of single cells [2]: 0.25 to 0.5 mM | character of single cell production [3]: homogenous production of single cells | time of single cell production ([3]; 1 mM): 3 to 7 days | nuclear ploidy of single cells ([3]; 1 mM, 14-21 days of continuous treatments): nuclear polyploidy | viability by fluorescein diacetate stain ([3]; 1 mM, 4 days and 11 days): very active and viable | frequency of nuclear polyploidy ([3]; 1 mM, cultures up to 14 days): < 1% | nuclei of super single cells ([3]; 1 mM, up to 28 days): extensive lobed nuclei | colony growth after plating single cells on M-medium ([3]; 7 days in colchicine, 4 weeks growth in the dark): several discrete colonies | concentration necessary to produce single cells, lower end of range [4]: ≥ 50 µM | concentration necessary to produce single cells, upper end of range [4]: ≤ 2 mM | increase in diameter of single cells ([4]; NT1B medium with 3% glycerol): 5 fold

CCOC(=O)COc1nn(-c2ccccc2)c(-c2ccccc2)c1Cl [DAS-PMTI-1]
potency relative to colchicine in affecting the growth of the cultures [1]: 100-1000 × | cell growth ([1]; 0.5 mM): affected very significantly | cell death ([1]; 0.5 mM, after 7 days of treatment): considerable cell death | cell segregation ([1]; all the cell suspension types tested): partial segregation of cells with general spherical shape | concentrations causing inhibition of mitosis, and cell death [2]: over 100 nM | threshold of tobacco cell growth inhibition [2]: ~50 nM | micro-nuclei in single cells (microscopic observations) ([2]; 25 nM): did not show the presence of micro-nuclei | fresh weights versus controls during the stationary phase ([2]; 25 nM (sentence ends with 50 nM), 3% glycerol): slightly greater | growth rate of the cells ([2]; 25 nM, over a period of 10 days): not lowering the growth rate | effect on growth ([2]; 0.5-1.0 mM): complete inhibition and cell death | time to complete inhibition and cell death ([2]; 0.5-1.0 mM, from culture initiation): ≤ 3 days | concentration effective for the production of single cells ([2]; glycerol as total carbon source, NT1 cells): 5e-06 to 2.5e-05 mM | concentration effective for the production of single cells [5]: 5 to 25 nM | character of single cell production [3]: assorted cell shapes | biomass versus respective controls ([4]; 1 uM, sucrose or glycerol medium): did not reduce the biomass of the cells significantly
